Laboratory results taken from PubChem BioAssay (NCI).
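All cell lines were grown in 96-well plates and treated with compound for 48 hours. TGI denotes the concentration required for complete inhibition of growth.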

Tests used:
Assay in all cases: NCI anticancer screen, dose series, 48 h
786-0 renal = system: 786-0 renal
A498 renal = system: A498 renal
A549 NSCLC = system: A549 NSCLC
ACHN renal = system: ACHN renal
CAKI-1 renal = system: CAKI-1 renal
CCRF-CEM leukemia = system: CCRF-CEM leukemia
COLO 205 colon = system: COLO 205 colon
DU-145 prostate = system: DU-145 prostate
EKVX NSCLC = system: EKVX NSCLC
HCT-116 colon = system: HCT-116 colon
HL-60(TB) leukemia = system: HL-60(TB) leukemia
HOP-62 NSCLC = system: HOP-62 NSCLC
HOP-92 NSCLC = system: HOP-92 NSCLC
HS 578T breast = system: HS 578T breast
HT29 colon = system: HT29 colon
IGROV1 ovarian = system: IGROV1 ovarian
K-562 leukemia = system: K-562 leukemia
KM12 colon = system: KM12 colon
LOX IMVI melanoma = system: LOX IMVI melanoma
M14 melanoma = system: M14 melanoma
MALME-3M melanoma = system: MALME-3M melanoma
MCF7 breast = system: MCF7 breast
MDA-MB-231 breast = system: MDA-MB-231 breast
MDA-MB-435 = system: MDA-MB-435
MDA-N = system: MDA-N
MOLT-4 leukemia = system: MOLT-4 leukemia
NCI-H226 lung = system: NCI-H226 lung
NCI-H23 lung = system: NCI-H23 lung
NCI-H460 lung = system: NCI-H460 lung
NCI/ADR-RES ovarian = system: NCI/ADR-RES ovarian
OVCAR-3 ovarian = system: OVCAR-3 ovarian
OVCAR-4 ovarian = system: OVCAR-4 ovarian
OVCAR-5 ovarian = system: OVCAR-5 ovarian
OVCAR-8 ovarian = system: OVCAR-8 ovarian
PC-3 prostate = system: PC-3 prostate
RPMI-8226 leukemia = system: RPMI-8226 leukemia
RXF 393 renal = system: RXF 393 renal
SF-268 CNS = system: SF-268 CNS
SF-295 CNS = system: SF-295 CNS
SF-539 CNS = system: SF-539 CNS
SK-MEL-28 melanoma = system: SK-MEL-28 melanoma
SK-MEL-5 melanoma = system: SK-MEL-5 melanoma
SK-OV-3 ovarian = system: SK-OV-3 ovarian
SN12C renal = system: SN12C renal
SNB-19 CNS = system: SNB-19 CNS
SNB-75 CNS = system: SNB-75 CNS
SR leukemia = system: SR leukemia
SW-620 colon = system: SW-620 colon
T-47D breast = system: T-47D breast
TK-10 renal = system: TK-10 renal
UACC-257 melanoma = system: UACC-257 melanoma
UACC-62 melanoma = system: UACC-62 melanoma
UO-31 renal = system: UO-31 renal
HCC-2998 colon = system: HCC-2998 colon
HCT-15 colon = system: HCT-15 colon
SK-MEL-2 melanoma = system: SK-MEL-2 melanoma
U251 CNS = system: U251 CNS

With Cc1nnc2n1-c1ccccc1-c1[nH]c3ccccc3c1C2 the TGI (786-0 renal) was greater than 100 µM, the TGI (A498 renal) was 78.2 µM and the TGI (A549 NSCLC) was greater than 100 µM. It also gave a TGI (ACHN renal) greater than 100 µM, a TGI (CAKI-1 renal) greater than 100 µM and a TGI (CCRF-CEM leukemia) greater than 100 µM. It also gave a TGI (COLO 205 colon) greater than 100 µM, a TGI (DU-145 prostate) greater than 100 µM and a TGI (EKVX NSCLC) greater than 100 µM. It also gave a TGI (HCT-116 colon) greater than 100 µM, a TGI (HL-60(TB) leukemia) of 70.8 µM and a TGI (HOP-62 NSCLC) greater than 100 µM. For the same compound, the TGI (HOP-92 NSCLC) was greater than 100 µM, the TGI (HS 578T breast) was greater than 100 µM and the TGI (HT29 colon) was greater than 100 µM. For the same compound, the TGI (IGROV1 ovarian) was greater than 100 µM, the TGI (K-562 leukemia) was greater than 100 µM and the TGI (KM12 colon) was greater than 100 µM. The TGI (LOX IMVI melanoma) was greater than 100 µM, the TGI (M14 melanoma) was greater than 100 µM and the TGI (MALME-3M melanoma) was greater than 100 µM. For the same compound, the TGI (MCF7 breast) was greater than 100 µM, the TGI (MDA-MB-231 breast) was greater than 100 µM and the TGI (MDA-MB-435) was greater than 100 µM. For the same compound, the TGI (MDA-N) was greater than 100 µM, the TGI (MOLT-4 leukemia) was greater than 100 µM and the TGI (NCI-H226 lung) was greater than 100 µM. It also gave a TGI (NCI-H23 lung) greater than 100 µM, a TGI (NCI-H460 lung) greater than 100 µM and a TGI (NCI/ADR-RES ovarian) greater than 100 µM. For the same compound, the TGI (OVCAR-3 ovarian) was greater than 100 µM, the TGI (OVCAR-4 ovarian) was greater than 100 µM and the TGI (OVCAR-5 ovarian) was greater than 100 µM. For the same compound, the TGI (OVCAR-8 ovarian) was greater than 100 µM, the TGI (PC-3 prostate) was greater than 100 µM and the TGI (RPMI-8226 leukemia) was greater than 100 µM. For the same compound, the TGI (RXF 393 renal) was greater than 100 µM, the TGI (SF-268 CNS) was greater than 100 µM and the TGI (SF-295 CNS) was greater than 100 µM. The TGI (SF-539 CNS) was greater than 100 µM, the TGI (SK-MEL-28 melanoma) was greater than 100 µM and the TGI (SK-MEL-5 melanoma) was greater than 100 µM. For the same compound, the TGI (SK-OV-3 ovarian) was greater than 100 µM, the TGI (SN12C renal) was greater than 100 µM and the TGI (SNB-19 CNS) was greater than 100 µM. The TGI (SNB-75 CNS) was 61.7 µM, the TGI (SR leukemia) was greater than 100 µM and the TGI (SW-620 colon) was greater than 100 µM. It also gave a TGI (T-47D breast) greater than 100 µM, a TGI (TK-10 renal) greater than 100 µM and a TGI (UACC-257 melanoma) greater than 100 µM. It also gave a TGI (UACC-62 melanoma) greater than 100 µM and a TGI (UO-31 renal) greater than 100 µM.
CC(C)(C)COC1C2(OCCO2)C2CCC1(C)C2(C)C (stereo not drawn) was tested, and the TGI (786-0 renal) was 34.5 µM, the TGI (A498 renal) was greater than 100 µM and the TGI (A549 NSCLC) was 48 µM. It also gave a TGI (ACHN renal) of 42.1 µM, a TGI (CAKI-1 renal) greater than 100 µM and a TGI (CCRF-CEM leukemia) of 37.8 µM. For the same compound, the TGI (COLO 205 colon) was 91.1 µM, the TGI (DU-145 prostate) was greater than 100 µM and the TGI (EKVX NSCLC) was 79.9 µM. For the same compound, the TGI (HCC-2998 colon) was greater than 100 µM, the TGI (HCT-15 colon) was 50 µM and the TGI (HL-60(TB) leukemia) was 44.2 µM. The TGI (HOP-62 NSCLC) was 59.2 µM, the TGI (HOP-92 NSCLC) was 70.2 µM and the TGI (HS 578T breast) was 90.1 µM. It also gave a TGI (HT29 colon) of 74.4 µM, a TGI (IGROV1 ovarian) greater than 100 µM and a TGI (K-562 leukemia) of 35.7 µM. The TGI (KM12 colon) was 42 µM, the TGI (LOX IMVI melanoma) was 38 µM and the TGI (M14 melanoma) was greater than 100 µM. For the same compound, the TGI (MALME-3M melanoma) was 64 µM, the TGI (MCF7 breast) was 37.3 µM and the TGI (MDA-MB-231 breast) was greater than 100 µM. It also gave a TGI (MDA-MB-435) greater than 100 µM, a TGI (MDA-N) greater than 100 µM and a TGI (MOLT-4 leukemia) of 39.7 µM. For the same compound, the TGI (NCI-H226 lung) was greater than 100 µM, the TGI (NCI-H23 lung) was greater than 100 µM and the TGI (NCI-H460 lung) was greater than 100 µM. It also gave a TGI (NCI/ADR-RES ovarian) greater than 100 µM, a TGI (OVCAR-3 ovarian) of 33.3 µM and a TGI (OVCAR-4 ovarian) greater than 100 µM. The TGI (OVCAR-5 ovarian) was 73.8 µM, the TGI (OVCAR-8 ovarian) was 55.9 µM and the TGI (PC-3 prostate) was 54.5 µM. For the same compound, the TGI (RPMI-8226 leukemia) was 41.7 µM, the TGI (RXF 393 renal) was 36 µM and the TGI (SF-268 CNS) was greater than 100 µM. For the same compound, the TGI (SF-295 CNS) was 35.2 µM, the TGI (SF-539 CNS) was greater than 100 µM and the TGI (SK-MEL-2 melanoma) was 50.2 µM. The TGI (SK-MEL-28 melanoma) was greater than 100 µM, the TGI (SK-MEL-5 melanoma) was greater than 100 µM and the TGI (SK-OV-3 ovarian) was greater than 100 µM. For the same compound, the TGI (SNB-19 CNS) was 41.7 µM, the TGI (SNB-75 CNS) was 67.6 µM and the TGI (SR leukemia) was 40.6 µM. For the same compound, the TGI (SW-620 colon) was 37.9 µM, the TGI (T-47D breast) was 68.5 µM and the TGI (TK-10 renal) was greater than 100 µM. For the same compound, the TGI (U251 CNS) was 34.3 µM, the TGI (UACC-257 melanoma) was 70.5 µM and the TGI (UACC-62 melanoma) was greater than 100 µM. The TGI (UO-31 renal) was 65.1 µM.
